Laboratory results: ChEMBL document CHEMBL4196048, “Discovery and characterization of a potent Wnt and hedgehog signaling pathways dual inhibitor” (Eur J Med Chem, 2018)
Calls of active or inactive are those of the source. The calls are words filed in the database; no cut-off is given here.

Columns and labels:
[1] = target: T1, Protein-serine O-palmitoleoyltransferase porcupine (Mus musculus, UniProt Q9JJJ7); assay: (§1) Inhibition of porcupine in mouse L Wnt3A cells co-cultured with HEK293 cells assessed as suppression of Wnt signaling after 48 hrs by Super-top flash reporter gene assay; assay type: cell-based
T1 sequence (Q9JJJ7 whole entry): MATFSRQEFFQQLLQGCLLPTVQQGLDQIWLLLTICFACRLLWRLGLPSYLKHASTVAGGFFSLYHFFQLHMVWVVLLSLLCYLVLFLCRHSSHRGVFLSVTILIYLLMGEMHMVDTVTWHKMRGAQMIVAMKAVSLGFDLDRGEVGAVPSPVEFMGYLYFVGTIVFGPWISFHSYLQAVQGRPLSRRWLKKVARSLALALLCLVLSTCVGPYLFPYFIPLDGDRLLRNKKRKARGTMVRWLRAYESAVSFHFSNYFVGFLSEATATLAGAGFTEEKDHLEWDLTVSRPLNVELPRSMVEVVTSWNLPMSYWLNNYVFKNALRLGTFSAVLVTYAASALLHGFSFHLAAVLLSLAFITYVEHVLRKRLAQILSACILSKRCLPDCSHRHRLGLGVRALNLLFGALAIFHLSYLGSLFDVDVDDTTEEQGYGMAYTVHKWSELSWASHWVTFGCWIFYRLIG

Protein smoothened [2] = target: Protein smoothened (Mus musculus, UniProt P56726); assay: (§2) Inhibition of smo-mediated hedgehog signaling pathway in mouse NIH3T3 cells expressing GRE-Luc reporter gene assessed as inhibition of SAG-induced GRE-Luc reporter activity after 48 hrs by luminescence assay; assay type: functional, cell-based
[3] = target: T2, Protein-serine O-palmitoleoyltransferase porcupine (Homo sapiens) (UniProt Q9H237); assay: Inhibition of porcupine in HEK293T cells transfected with pLibin-WNT3A plasmid assessed as reduction in Wnt3A secretion into cell culture medium at 100 nM after 48 hrs by Western blot method; assay type: cell-based
T2 sequence (whole entry): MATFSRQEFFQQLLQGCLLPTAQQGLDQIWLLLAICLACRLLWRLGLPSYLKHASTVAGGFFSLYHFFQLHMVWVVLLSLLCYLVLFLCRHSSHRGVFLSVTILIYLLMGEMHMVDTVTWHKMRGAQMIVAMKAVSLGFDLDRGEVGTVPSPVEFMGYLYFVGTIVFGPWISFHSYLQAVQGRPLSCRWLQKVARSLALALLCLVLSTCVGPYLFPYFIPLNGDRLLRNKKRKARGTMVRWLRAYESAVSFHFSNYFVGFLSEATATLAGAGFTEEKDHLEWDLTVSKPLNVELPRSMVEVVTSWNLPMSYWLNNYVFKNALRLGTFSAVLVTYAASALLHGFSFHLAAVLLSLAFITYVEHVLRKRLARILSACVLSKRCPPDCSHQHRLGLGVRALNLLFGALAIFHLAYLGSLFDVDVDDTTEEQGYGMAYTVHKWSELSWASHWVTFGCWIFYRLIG

[4] = target: T3, Protein-serine O-palmitoleoyltransferase porcupine (Mus musculus) (UniProt Q9JJJ7); assay: as §1; assay type: cell-based
T3 sequence (whole entry): T1 sequence (Q9JJJ7 whole entry)

[5] = target: T2, Protein-serine O-palmitoleoyltransferase porcupine (Homo sapiens); assay: Inhibition of porcupine-mediated Wnt/beta-catenin signaling in human PA1 cells assessed as downregulation of disheveled 2 phosphorylation after 48 hrs by Western blot analysis; assay type: cell-based
[6] = target: T2, Protein-serine O-palmitoleoyltransferase porcupine (Homo sapiens); assay: Inhibition of porcupine-mediated Wnt/beta-catenin signaling in human PA1 cells assessed as downregulation of Axin2 mRNA expression after 24 hrs by real-time PCR analysis; assay type: cell-based
[7] = target: T2, Protein-serine O-palmitoleoyltransferase porcupine (Homo sapiens); assay: Inhibition of porcupine-mediated Wnt/beta-catenin signaling in human PA1 cells assessed as downregulation of LRP6 phosphorylation after 48 hrs by Western blot analysis; assay type: cell-based
[8] = Volume of distribution at steady state in ICR mouse at 2 mg/kg, iv by LC-MS/MS analysis; assay type: ADME, organism-based; settings: in vivo, read-out: Vdss
Mus musculus [9] = assay: Toxicity in C57BL/6J mouse assessed as effect on lung weight at 10 mg/kg administered for 7 days via oral gavage; assay type: organism-based; settings: in vivo, 168 h
Mus musculus [10] = assay: Toxicity in C57BL/6J mouse assessed as effect on liver architecture at 10 mg/kg administered via oral gavage for 7 days by hematoxylin and eosin staining-based method; assay type: organism-based; settings: in vivo, 168 h
[11] = Clearance in ICR mouse at 2 mg/kg, iv by LC-MS/MS analysis; assay type: ADME, organism-based; settings: in vivo
[12] = Oral bioavailability in ICR mouse at 10 mg/kg administered via gavage by LC-MS/MS analysis; assay type: ADME, organism-based; settings: in vivo
[13] = AUC (0 to 24 hrs) in ICR mouse at 2 mg/kg, iv by LC-MS/MS analysis; assay type: ADME, organism-based; set-up: dose 2 mg/kg, time < 24 hr, route intravenous; settings: in vivo
Mus musculus [14] = assay: Toxicity in C57BL/6J mouse assessed as effect on colon architecture at 10 mg/kg administered via oral gavage for 7 days by hematoxylin and eosin staining-based method; assay type: organism-based; settings: in vivo, 168 h
Mus musculus [15] = assay: Toxicity in C57BL/6J mouse assessed as effect on WBC count in blood at 10 mg/kg administered for 7 days via oral gavage; assay type: organism-based; settings: in vivo, 168 h
Mus musculus [16] = assay: Toxicity in C57BL/6J mouse assessed as effect on behavior at 10 mg/kg administered for 7 days via oral gavage; assay type: organism-based; settings: in vivo, 168 h
Protein smoothened [17] = target: Protein smoothened (Homo sapiens, UniProt Q99835); assay: Inhibition of Bodipy-cyclopamine binding to human Smo expressed in human U2OS cells after 2 hrs by high content fluorescence imaging analysis; assay type: cell-based
[18] = Protein binding in mouse plasma; assay type: ADME, cell-free; settings: read-out: PPB (converted)
Mus musculus [19] = assay: Toxicity in C57BL/6J mouse assessed as effect on food consumption at 10 mg/kg administered for 7 days via oral gavage; assay type: organism-based; settings: in vivo, 168 h
Mus musculus [20] = assay: Toxicity in C57BL/6J mouse assessed as effect on kidney weight at 10 mg/kg administered for 7 days via oral gavage; assay type: organism-based; settings: in vivo, 168 h
[21] = target: Protein smoothened (Mus musculus) (UniProt P56726); assay: as §2; assay type: functional, cell-based
HEK-293T = assay: Effect on Wnt3A levels in HEK293T cells transfected with pLibin-WNT3A plasmid at 100 nM after 48 hrs by Western blot method; assay type: functional, cell-based; settings: Homo sapiens
Mus musculus [22] = assay: Toxicity in C57BL/6J mouse assessed as effect on heart weight at 10 mg/kg administered for 7 days via oral gavage; assay type: organism-based; settings: in vivo, 168 h
Astrocyte = assay: Cytotoxicity against primary astrocytes (unknown origin) up to 20 uM after 24 hrs by MTT assay; assay type: cell-based
Mus musculus [23] = assay: Toxicity in C57BL/6J mouse assessed as body weight loss at 10 mg/kg administered for 7 days via oral gavage; assay type: organism-based; settings: in vivo, 168 h
Mus musculus [24] = assay: Toxicity in C57BL/6J mouse assessed as effect on RBC count in blood at 10 mg/kg administered for 7 days via oral gavage; assay type: organism-based; settings: in vivo, 168 h
[25] = Half life in ICR mouse at 2 mg/kg, iv by LC-MS/MS analysis; assay type: ADME, organism-based; settings: in vivo
Mus musculus [26] = assay: Toxicity in C57BL/6J mouse assessed as effect on spleen architecture at 10 mg/kg administered via oral gavage for 7 days by hematoxylin and eosin staining-based method; assay type: organism-based; settings: in vivo, 168 h
Mus musculus [27] = assay: Time at which blood concentration stays above in vitro IC50 for porcupine-mediated Wnt signaling and smo-mediated hedgehog signaling pathway in ICR mouse at 10 mg/kg, po administered via gavage by LC-MS/MS analysis; assay type: ADME, organism-based; settings: in vivo
[28] = target: T2, Protein-serine O-palmitoleoyltransferase porcupine (Homo sapiens); assay: Inhibition of porcupine in HEK293 cells transfected with pLibin-WNT3A plasmid assessed as downregulation of disheveled 2 phosphorylation at 100 nM after 48 hrs by Western blot analysis; assay type: cell-based
Mus musculus [29] = assay: Toxicity in C57BL/6J mouse assessed as effect on spleen weight at 10 mg/kg administered for 7 days via oral gavage; assay type: organism-based; settings: in vivo, 168 h
[30] = Tmax in ICR mouse at 10 mg/kg, po administered via gavage by LC-MS/MS analysis; assay type: ADME, organism-based; settings: in vivo
GES1 = assay: Cytotoxicity against human GES-1 cells up to 20 uM by Cell Titer-Glo assay; assay type: cell-based
[31] = Half life in ICR mouse at 10 mg/kg, po administered via gavage by LC-MS/MS analysis; assay type: ADME, organism-based; settings: in vivo
[32] = target: T2, Protein-serine O-palmitoleoyltransferase porcupine (Homo sapiens); assay: Inhibition of porcupine in HEK293 cells transfected with pLibin-WNT3A plasmid assessed as downregulation of LRP6 phosphorylation at 100 nM after 48 hrs by Western blot analysis; assay type: cell-based
[33] = Cmax in ICR mouse at 10 mg/kg, po administered via gavage by LC-MS/MS analysis; assay type: ADME, organism-based; set-up: dose 10 mg/kg, route oral; settings: in vivo
Mus musculus [34] = assay: Toxicity in C57BL/6J mouse assessed as effect on lymphocyte count in blood at 10 mg/kg administered for 7 days via oral gavage; assay type: organism-based; settings: in vivo, 168 h
Mus musculus [35] = assay: Toxicity in C57BL/6J mouse assessed as effect on stomach architecture at 10 mg/kg administered via oral gavage for 7 days by hematoxylin and eosin staining-based method; assay type: organism-based; settings: in vivo, 168 h
[36] = AUC (0 to 24 hrs) in ICR mouse at 10 mg/kg, po administered via gavage by LC-MS/MS analysis; assay type: ADME, organism-based; set-up: time < 24 hr, dose 10 mg/kg, route oral; settings: in vivo
[37] = target: Protein smoothened (Mus musculus) (UniProt P56726); assay: Inhibition of smo-mediated hedgehog signaling pathway in mouse NIH3T3-Luc cells assessed as downregulation of Gli mRNA expression after 48 hrs by real-time PCR analysis; assay type: functional, cell-based
Mus musculus [38] = assay: Toxicity in C57BL/6J mouse assessed as effect on hemoglobin content in blood at 10 mg/kg administered for 7 days via oral gavage; assay type: organism-based; settings: in vivo, 168 h
[39] = target: Protein smoothened (Mus musculus) (UniProt P56726); assay: Inhibition of smo-mediated hedgehog signaling pathway in mouse NIH3T3-Luc cells assessed as downregulation of 1 to 100 nM SAG-induced Gli luciferase activity after 48 hrs luminescence assay; assay type: functional, cell-based
Mus musculus [40] = assay: Toxicity in C57BL/6J mouse assessed as effect on liver weight at 10 mg/kg administered for 7 days via oral gavage; assay type: organism-based; settings: in vivo, 168 h
Mus musculus [41] = assay: Toxicity in C57BL/6J mouse assessed as effect on platelet count in blood at 10 mg/kg administered for 7 days via oral gavage; assay type: organism-based; settings: in vivo, 168 h
[42] = target: Protein smoothened (Mus musculus) (UniProt P56726); assay: Inhibition of smo-mediated hedgehog signaling pathway in mouse NIH3T3-Luc cells assessed as downregulation of Gli mRNA expression at 1 uM after 48 hrs by real-time PCR analysis; assay type: functional, cell-based

Chain of Protein smoothened (Mus musculus) (P56726 whole entry): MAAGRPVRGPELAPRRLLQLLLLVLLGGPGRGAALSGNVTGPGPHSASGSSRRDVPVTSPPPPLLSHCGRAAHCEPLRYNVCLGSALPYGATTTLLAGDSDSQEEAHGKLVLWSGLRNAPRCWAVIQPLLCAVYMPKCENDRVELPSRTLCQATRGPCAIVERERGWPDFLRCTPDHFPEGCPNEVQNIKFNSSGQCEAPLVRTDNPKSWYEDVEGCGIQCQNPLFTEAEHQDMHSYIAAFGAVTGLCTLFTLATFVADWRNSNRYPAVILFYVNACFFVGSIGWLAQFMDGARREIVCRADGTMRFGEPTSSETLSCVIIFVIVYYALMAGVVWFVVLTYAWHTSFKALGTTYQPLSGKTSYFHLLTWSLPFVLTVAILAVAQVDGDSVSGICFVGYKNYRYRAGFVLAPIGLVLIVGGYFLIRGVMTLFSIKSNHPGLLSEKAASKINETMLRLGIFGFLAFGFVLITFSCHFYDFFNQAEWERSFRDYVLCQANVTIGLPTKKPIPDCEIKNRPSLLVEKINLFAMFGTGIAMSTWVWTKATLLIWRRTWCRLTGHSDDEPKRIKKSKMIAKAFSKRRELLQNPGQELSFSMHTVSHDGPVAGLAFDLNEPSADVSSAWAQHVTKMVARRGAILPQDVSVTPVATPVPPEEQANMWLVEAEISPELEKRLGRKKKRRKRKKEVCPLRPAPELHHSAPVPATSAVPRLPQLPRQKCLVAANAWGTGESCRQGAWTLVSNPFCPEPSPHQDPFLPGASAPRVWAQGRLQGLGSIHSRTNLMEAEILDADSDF
Chain of Protein smoothened (Mus musculus, UniProt P56726) (P56726 whole entry): as above
Chain of Protein smoothened (Homo sapiens, UniProt Q99835) (Q99835 whole entry): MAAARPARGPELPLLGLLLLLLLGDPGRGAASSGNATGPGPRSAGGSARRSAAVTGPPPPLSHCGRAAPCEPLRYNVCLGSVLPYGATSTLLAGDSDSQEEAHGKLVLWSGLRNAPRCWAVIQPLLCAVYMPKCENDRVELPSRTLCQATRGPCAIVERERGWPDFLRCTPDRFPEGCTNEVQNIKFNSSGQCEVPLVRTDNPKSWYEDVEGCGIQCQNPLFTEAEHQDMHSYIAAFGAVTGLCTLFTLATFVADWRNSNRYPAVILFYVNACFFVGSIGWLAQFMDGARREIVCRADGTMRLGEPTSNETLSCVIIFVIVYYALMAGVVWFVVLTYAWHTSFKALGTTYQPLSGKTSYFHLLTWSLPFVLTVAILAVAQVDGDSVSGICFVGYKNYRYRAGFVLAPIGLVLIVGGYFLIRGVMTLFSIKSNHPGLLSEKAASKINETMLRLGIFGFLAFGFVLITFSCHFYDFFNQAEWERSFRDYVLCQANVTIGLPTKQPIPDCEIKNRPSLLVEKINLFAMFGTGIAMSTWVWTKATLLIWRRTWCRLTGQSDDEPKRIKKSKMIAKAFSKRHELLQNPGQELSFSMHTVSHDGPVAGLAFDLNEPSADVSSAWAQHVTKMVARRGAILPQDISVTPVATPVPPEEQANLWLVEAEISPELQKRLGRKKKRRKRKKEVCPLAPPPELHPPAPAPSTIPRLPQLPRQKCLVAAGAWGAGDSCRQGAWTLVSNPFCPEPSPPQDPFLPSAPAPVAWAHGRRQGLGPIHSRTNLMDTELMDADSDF

## Cc1cc(-c2ncc(CNC(=O)c3ccc4c(c3)oc3ccccc34)cc2F)ccn1
[1]
  IC50: 2.1 nM

## COc1cc(CNC(=O)c2ccc3c(c2)[nH]c2ccccc23)cnc1-c1ccnc(C)c1
Protein smoothened [2]
  IC50: 3660 nM
[1]
  IC50: 1.9 nM

## CS(=O)(=O)c1ccc(C(=O)Nc2ccc(Cl)c(-c3ccccn3)c2)c(Cl)c1
[3]
  inhibition: inactive
[4]
  inhibition: inactive
[5]
  inhibition: inactive
[6]
  inhibition: inactive
[7]
  inhibition: inactive

## Cc1cc(-c2ncc(CNC(=O)c3ccc4c(c3)Cc3ccccc3-4)cc2F)ccn1
[1]
  IC50: 6.5 nM

## Cc1cc(-c2ncc(CNC(=O)c3ccc4c(c3)[nH]c3ccccc34)cc2F)ccn1
[8]
  Vd: 0.4 L/kg
Mus musculus [9]
  Activity: Non-Toxic
Mus musculus [10]
  Activity: Non-Toxic
[11]
  clearance: 6.1 mL/min/kg
[12]
  bioavailability: 49%
[13]
  AUC(0-t) at 24 h: 5460 ng·h/mL
[3]
  inhibition: Active
Mus musculus [14]
  Activity: Non-Toxic
Mus musculus [15]
  Activity: Non-Toxic
Mus musculus [16]
  Activity: Non-Toxic
Protein smoothened [17]
  IC50: > 10000 nM
[18]
  fraction unbound: 0.007
Mus musculus [19]
  Activity: Non-Toxic
Mus musculus [20]
  Activity: Non-Toxic
[21]
  inhibition: Dose-dependent effect
Protein smoothened [2]
  IC50: 71 nM
HEK-293T
  Activity: inactive
Mus musculus [22]
  Activity: Non-Toxic
Astrocyte
  Activity: Non-Toxic
Mus musculus [23]
  Activity: Non-Toxic
Mus musculus [24]
  Activity: Non-Toxic
[5]
  inhibition: Active
[25]
  half-life: 1.1 h
Mus musculus [26]
  Activity: Non-Toxic
Mus musculus [27]
  Time: 10 h
[28]
  inhibition: Active
Mus musculus [29]
  Activity: Non-Toxic
[30]
  Tmax: 0.5 h
GES1
  Activity: Non-Toxic
[6]
  inhibition: Active
[31]
  half-life: 2.1 h
[32]
  inhibition: Active
[33]
  Cmax: 5140 ng/mL
Mus musculus [34]
  Activity: Non-Toxic
[7]
  inhibition: Active
Mus musculus [35]
  Activity: Non-Toxic
[36]
  AUC(0-t) at 24 h: 13500 ng·h/mL
[37]
  inhibition: Dose-dependent effect
Mus musculus [38]
  Activity: Non-Toxic
[39]
  inhibition: Active
Mus musculus [40]
  Activity: Non-Toxic
Mus musculus [41]
  Activity: Non-Toxic

## Cc1cc(-c2ncc(CC(=O)Nc3ccc(-c4cnccn4)cn3)cc2C)ccn1
[3]
  inhibition: Active
[21]
  inhibition: inactive
HEK-293T
  Activity: inactive
[5]
  inhibition: Active
[42]
  inhibition: inactive
[28]
  inhibition: Active
[6]
  inhibition: Active
[32]
  inhibition: Active
[7]
  inhibition: Active

## Cc1cc(-c2ncc(CNC(=O)c3ccc4c(c3)[nH]c3ccccc34)cc2C#N)ccn1
Protein smoothened [2]
  IC50: 1220 nM
[1]
  IC50: 0.72 nM
